# Source: ChEMBL document CHEMBL3046389, “Synthesis and biological evaluation of novel hydroquinone dimethyl ethers as potential anticancer and antimicrobial agents” (2013)
# Key:
# Type in all cases: functional
# U-251 = assay: Growth inhibition of Homo sapiens (human) U251 cells at 10 uM after 48 hr by SRB assay; settings: U-251, 48 h, read-out: GI
# BT-549 = assay: Growth inhibition of Homo sapiens (human) BT549 cells at 10 uM after 48 hr by SRB assay; settings: BT-549, 48 h, read-out: GI
# UO-31 = assay: Growth inhibition of Homo sapiens (human) UO31 cells at 10 uM after 48 hr by SRB assay; settings: UO-31, 48 h, read-out: GI
# 786-0 [1] = assay: Anticancer activity against Homo sapiens (human) 786-0 cells after 48 hr by SRB assay; settings: 786-0, 48 h
# ACHN = assay: Anticancer activity against Homo sapiens (human) ACHN cells after 48 hr by SRB assay
# OVCAR-8 [2] = assay: Anticancer activity against Homo sapiens (human) OVCAR8 cells after 48 hr by SRB assay; settings: OVCAR-8, 48 h
# TK-10 = assay: Growth inhibition of Homo sapiens (human) TK10 cells at 10 uM after 48 hr by SRB assay; settings: TK-10, 48 h, read-out: GI
# Escherichia coli = assay: Antimicrobial activity against Escherichia coli ATCC 11775 after 48 hr by two-fold serial broth dilution method; settings: ATCC 11775, 48 h
# HOP-62 = assay: Growth inhibition of Homo sapiens (human) HOP62 cells at 10 uM after 48 hr by SRB assay; settings: HOP-62, 48 h, read-out: GI
# Hs-578T = assay: Anticancer activity against Homo sapiens (human) Hs 578T cells after 48 hr by SRB assay
# SN12C = assay: Anticancer activity against Homo sapiens (human) SN12C cells after 48 hr by SRB assay
# NCI-H460 = assay: Anticancer activity against Homo sapiens (human) NCI-H460 cells after 48 hr by SRB assay; settings: NCI-H460, 48 h
# OVCAR-8 [3] = assay: Growth inhibition of Homo sapiens (human) OVCAR8 cells at 10 uM after 48 hr by SRB assay; settings: OVCAR-8, 48 h, read-out: GI
# SF-539 = assay: Anticancer activity against Homo sapiens (human) SF539 cells after 48 hr by SRB assay; settings: SF-539, 48 h
# Staphylococcus aureus = assay: Antimicrobial activity against Staphylococcus aureus DSM 1104 after 48 hr by two-fold serial broth dilution method; settings: DSM 1104, 48 h
# HT-29 = assay: Anticancer activity against Homo sapiens (human) HT-29 cells after 48 hr by SRB assay; settings: HT-29, 48 h
# K562 = assay: Growth inhibition of Homo sapiens (human) K562 cells at 10 uM after 48 hr by SRB assay; settings: K562, 48 h, read-out: GI
# SW-620 = assay: Anticancer activity against Homo sapiens (human) SW620 cells after 48 hr by SRB assay; settings: SW-620, 48 h
# MDA-MB-231 = assay: Anticancer activity against Homo sapiens (human) MDA-MB-231/ATCC cells after 48 hr by SRB assay; settings: MDA-MB-231, 48 h
# EKVX = assay: Anticancer activity against Homo sapiens (human) EKVX cells after 48 hr by SRB assay
# SF-295 = assay: Anticancer activity against Homo sapiens (human) SF295 cells after 48 hr by SRB assay; settings: SF-295, 48 h
# PC-3 = assay: Growth inhibition of Homo sapiens (human) PC3 cells at 10 uM after 48 hr by SRB assay; settings: PC-3, 48 h, read-out: GI
# 786-0 [4] = assay: Growth inhibition of Homo sapiens (human) 786-0 cells at 10 uM after 48 hr by SRB assay; settings: 786-0, 48 h, read-out: GI
# KM12 = assay: Growth inhibition of Homo sapiens (human) KM12 cells at 10 uM after 48 hr by SRB assay; settings: KM12, 48 h, read-out: GI
# HCT-116 = assay: Anticancer activity against Homo sapiens (human) HCT116 cells after 48 hr by SRB assay; settings: HCT-116, 48 h
# MDA-MB-435 = assay: Growth inhibition of Homo sapiens (human) MDA-MB-435 cells at 10 uM after 48 hr by SRB assay; settings: MDA-MB-435, 48 h, read-out: GI
# NCI-H322M = assay: Anticancer activity against Homo sapiens (human) NCI-H322M cells after 48 hr by SRB assay
# M14 = assay: Anticancer activity against Homo sapiens (human) M14 cells after 48 hr by SRB assay; settings: M14, 48 h
# Bacillus subtilis = assay: Antimicrobial activity against Bacillus subtilis ATCC 6633 after 48 hr by two-fold serial broth dilution method; settings: ATCC 6633, 48 h
# RXF 393 = assay: Anticancer activity against Homo sapiens (human) RXF393 cells after 48 hr by SRB assay; settings: RXF 393, 48 h
# SK-OV-3 = assay: Growth inhibition of Homo sapiens (human) SKOV3 cells at 10 uM after 48 hr by SRB assay; settings: SK-OV-3, 48 h, read-out: GI
# [5] = read-out: LC50 (the source's name)
smiles,measurement,setting,value
COc1ccc(OC)c(/C=C/C(=O)N/N=C/c2ccccc2)c1,inhibition of growth at 10 µM,U-251,56.5%
same,inhibition of growth at 10 µM,BT-549,39.2%
same,inhibition of growth at 10 µM,UO-31,43.4%
same,GI50,786-0 [1],7 µM
same,TGI,786-0 [1],72.5 µM
same,CC50,786-0 [1]; [5],> 100 µM
same,GI50,ACHN,9.66 µM
same,TGI,ACHN,> 100 µM
same,CC50,ACHN; [5],> 100 µM
same,GI50,OVCAR-8 [2],5.44 µM
same,LC50,OVCAR-8 [2],> 100 µM
same,TGI,OVCAR-8 [2],94.6 µM
same,inhibition of growth at 10 µM,TK-10,43.3%
same,MBC,Escherichia coli,50 µg/mL
same,MIC,Escherichia coli,50 µg/mL
same,inhibition of growth at 10 µM,HOP-62,32.7%
same,GI50,Hs-578T,9.07 µM
same,TGI,Hs-578T,> 100 µM
same,CC50,Hs-578T; [5],> 100 µM
same,GI50,SN12C,4.17 µM
same,LC50,SN12C,> 100 µM
same,TGI,SN12C,39.9 µM
same,GI50,NCI-H460,2.08 µM
same,TGI,NCI-H460,5.62 µM
same,CC50,NCI-H460; [5],28.3 µM
same,inhibition of growth at 10 µM,OVCAR-8 [3],45.2%
same,GI50,SF-539,4.42 µM
same,TGI,SF-539,25.1 µM
same,CC50,SF-539; [5],> 100 µM
same,MBC,Staphylococcus aureus,100 µg/mL
same,MIC,Staphylococcus aureus,100 µg/mL
same,GI50,HT-29,2.1 µM
same,TGI,HT-29,> 100 µM
same,CC50,HT-29; [5],> 100 µM
same,inhibition of growth at 10 µM,K562,78.8%
same,GI50,SW-620,1.5 µM
same,TGI,SW-620,6.23 µM
same,CC50,SW-620; [5],> 100 µM
same,GI50,MDA-MB-231,7.24 µM
same,TGI,MDA-MB-231,> 100 µM
same,CC50,MDA-MB-231; [5],> 100 µM
same,GI50,EKVX,1.59 µM
same,TGI,EKVX,59.5 µM
same,CC50,EKVX; [5],> 100 µM
same,GI50,SF-295,1 µM
same,TGI,SF-295,11.1 µM
same,CC50,SF-295; [5],> 100 µM
same,inhibition of growth at 10 µM,PC-3,36.5%
same,inhibition of growth at 10 µM,786-0 [4],45.7%
same,inhibition of growth at 10 µM,KM12,69%
same,GI50,HCT-116,2.64 µM
same,TGI,HCT-116,10.2 µM
same,CC50,HCT-116; [5],67.2 µM
same,inhibition of growth at 10 µM,MDA-MB-435,108%
same,GI50,NCI-H322M,5.22 µM
same,TGI,NCI-H322M,> 100 µM
same,CC50,NCI-H322M; [5],> 100 µM
same,GI50,M14,2.16 µM
same,LC50,M14,> 100 µM
same,TGI,M14,6.77 µM
same,MBC,Bacillus subtilis,100 µg/mL
same,MIC,Bacillus subtilis,50 µg/mL
same,GI50,RXF 393,3.9 µM
same,LC50,RXF 393,> 100 µM
same,TGI,RXF 393,26.6 µM
same,inhibition of growth at 10 µM,SK-OV-3,40%
